{"source": "patent US8889370B2", "about": "“Method of determining inhibitors of coagulation” (Siemens Healthcare Diagnostics Products GmbH, priority 2010, dated 2014)", "target": "T1, bovine thrombin (Bos taurus, UniProt P00735)", "T1 construct": "a lyophilized thrombin reagent consisting of bovine thrombin; purchased Siemens Healthcare Diagnostics (hirudin activity assay, thrombin reagent)", "assay": "Determination of the thrombin binding constant (Ki) of peptide aldehyde ligands, chromogenic assay with hirudin activity assay reagents, Dixon plot", "format": "biochemical", "procedure": "The kinetic data of the peptide aldehyde ligands were determined in chromogenic assay formats by measuring the rate of hydrolysis of chromogenic peptide substrates which compete with the peptide aldehyde ligands for binding to the active site of the particular enzyme, at various substrate concentrations and peptide aldehyde-ligand concentrations. The binding constant (Ki) was determined by a known method (Dixon, M., 1953, Biochem J, 55, 170-171).\nThe thrombin binding constant was determined using the reagents of the hirudin activity assay from Siemens Healthcare Diagnostics. The hirudin activity assay comprises a lyophilized thrombin reagent consisting of bovine thrombin, a heparin inhibitor and aprotinin, a lyophilized chromogenic substrate reagent with a concentration of 4 mmol/l tos-Gly-Pro-Arg-ANBA-IPA (tosylglycyl-L-propyl-arginyl-5-amino-2-nitrobenzoyliso-propylamide) after reconstitution. The thrombin reagent was reconstituted in buffer solution (trishydroxymethylamino-methane, NaCl, pH 8.2). Dilutions of the substrate reagent were prepared with deionized water. The peptide aldehyde ligands prepared according to example 1 were dissolved in water and used as sample. The B-r-G-R—H ligand was used in a concentration range from 26.1 to 0.815 μM. The B-f-P—R—H ligand was used in a concentration range from 26.1 to 0 μM. The assays were carried out automatically in a BCS® XP coagulation analyzer (Siemens Healthcare Diagnostics, Marburg, Germany).\nA reaction mix was mixed together as follows:\n30 μl of sample (peptide aldehyde ligand B-r-G-R—H or B-f-P—R—H),\n150 μl of thrombin reagent,\n50 μl of chromogenic substrate reagent (tos-Gly-Pro-Arg-ABNA-IPA).\nThe reaction rate in mE/min was determined on the basis of the increase in optical density of the reaction mix at a wavelength of 405 nm. For this, the optical density of the reaction mixes was determined in time intervals of from 15 to 40 seconds for the B-f-P—R—H peptide aldehyde ligand or 5-16 seconds for the B-r-G-R—H peptide aldehyde ligand.\nReversibly and irreversibly binding ligands can be distinguished by their reaction kinetics. Plotting 1/v, where v is the reaction rate, as a function of the ligand concentration (i) at a constant concentration (S) of a cleavable substrate produces a line. When using two or more different substrate concentrations (S1, S2 . . . SN), said lines intersect at a single point. The x axis value of this point corresponds to −Ki, with Ki corresponding to the binding constant, see, for example, Klebe, G., Wirkstoffdesign, 2nd edition, Spektrum Akademischer Verlag, Heidelberg, Germany, 2009, pages 52-62 and Dixon, M., 1953, Biochem J, 55, 170-171. With an irreversible inhibition, the curves meet at a single point on the x axis, which again corresponds to −Ki.", "note": "Where two headings read alike, the source gives them in different places.", "data": [{"smiles": "N=C(N)NCCC[C@@H](C=O)NC(=O)CNC(=O)[C@@H](CCCNC(=N)N)NC(=O)CCC(=O)NCCCOCCOCCOCCCNC(=O)CCCC[C@@H]1SC[C@@H]2NC(=O)N[C@@H]21", "note": "[B-r-G-R-H, biotinyl-Ttds-D-Arg-Gly-Arg-H]", "values": [{"measurement": "1/Reaction rate", "setting": "CB-r-G-R-H 0.81522 μM, Csubstrate = 0.5 mM", "result": 0.516, "unit": "min/E"}, {"measurement": "1/Reaction rate", "setting": "CB-r-G-R-H 0.81522 μM, Csubstrate = 2 mM", "result": 0.3884, "unit": "min/E"}, {"measurement": "1/Reaction rate", "setting": "CB-r-G-R-H 0.81522 μM, Csubstrate = 4 mM", "result": 0.3756, "unit": "min/E"}, {"measurement": "1/Reaction rate", "setting": "CB-r-G-R-H 1.30435 μM, Csubstrate = 0.5 mM", "result": 0.5211, "unit": "min/E"}, {"measurement": "1/Reaction rate", "setting": "CB-r-G-R-H 1.30435 μM, Csubstrate = 2 mM", "result": 0.3902, "unit": "min/E"}, {"measurement": "1/Reaction rate", "setting": "CB-r-G-R-H 1.30435 μM, Csubstrate = 4 mM", "result": 0.3758, "unit": "min/E"}, {"measurement": "1/Reaction rate", "setting": "CB-r-G-R-H 1.63043 μM, Csubstrate = 0.5 mM", "result": 0.5224, "unit": "min/E"}, {"measurement": "1/Reaction rate", "setting": "CB-r-G-R-H 1.63043 μM, Csubstrate = 2 mM", "result": 0.3894, "unit": "min/E"}, {"measurement": "1/Reaction rate", "setting": "CB-r-G-R-H 1.63043 μM, Csubstrate = 4 mM", "result": 0.3748, "unit": "min/E"}, {"measurement": "1/Reaction rate", "setting": "CB-r-G-R-H 2.60870 μM, Csubstrate = 0.5 mM", "result": 0.5283, "unit": "min/E"}, {"measurement": "1/Reaction rate", "setting": "CB-r-G-R-H 2.60870 μM, Csubstrate = 2 mM", "result": 0.3876, "unit": "min/E"}, {"measurement": "1/Reaction rate", "setting": "CB-r-G-R-H 2.60870 μM, Csubstrate = 4 mM", "result": 0.373, "unit": "min/E"}, {"measurement": "1/Reaction rate", "setting": "CB-r-G-R-H 3.26087 μM, Csubstrate = 0.5 mM", "result": 0.5385, "unit": "min/E"}, {"measurement": "1/Reaction rate", "setting": "CB-r-G-R-H 3.26087 μM, Csubstrate = 2 mM", "result": 0.3968, "unit": "min/E"}, {"measurement": "1/Reaction rate", "setting": "CB-r-G-R-H 3.26087 μM, Csubstrate = 4 mM", "result": 0.3807, "unit": "min/E"}, {"measurement": "1/Reaction rate", "setting": "CB-r-G-R-H 5.21739 μM, Csubstrate = 0.5 mM", "result": 0.5408, "unit": "min/E"}, {"measurement": "1/Reaction rate", "setting": "CB-r-G-R-H 5.21739 μM, Csubstrate = 2 mM", "result": 0.3946, "unit": "min/E"}, {"measurement": "1/Reaction rate", "setting": "CB-r-G-R-H 5.21739 μM, Csubstrate = 4 mM", "result": 0.3761, "unit": "min/E"}, {"measurement": "1/Reaction rate", "setting": "CB-r-G-R-H 6.52174 μM, Csubstrate = 0.5 mM", "result": 0.5637, "unit": "min/E"}, {"measurement": "1/Reaction rate", "setting": "CB-r-G-R-H 6.52174 μM, Csubstrate = 2 mM", "result": 0.4008, "unit": "min/E"}, {"measurement": "1/Reaction rate", "setting": "CB-r-G-R-H 6.52174 μM, Csubstrate = 4 mM", "result": 0.3841, "unit": "min/E"}, {"measurement": "1/Reaction rate", "setting": "CB-r-G-R-H 9.78261 μM, Csubstrate = 0.5 mM", "result": 0.5802, "unit": "min/E"}, {"measurement": "1/Reaction rate", "setting": "CB-r-G-R-H 9.78261 μM, Csubstrate = 2 mM", "result": 0.4106, "unit": "min/E"}, {"measurement": "1/Reaction rate", "setting": "CB-r-G-R-H 9.78261 μM, Csubstrate = 4 mM", "result": 0.3805, "unit": "min/E"}, {"measurement": "1/Reaction rate", "setting": "CB-r-G-R-H 13.04348 μM, Csubstrate = 0.5 mM", "result": 0.609, "unit": "min/E"}, {"measurement": "1/Reaction rate", "setting": "CB-r-G-R-H 13.04348 μM, Csubstrate = 2 mM", "result": 0.4032, "unit": "min/E"}, {"measurement": "1/Reaction rate", "setting": "CB-r-G-R-H 13.04348 μM, Csubstrate = 4 mM", "result": 0.3885, "unit": "min/E"}, {"measurement": "1/Reaction rate", "setting": "CB-r-G-R-H 16.30435 μM, Csubstrate = 0.5 mM", "result": 0.6264, "unit": "min/E"}, {"measurement": "1/Reaction rate", "setting": "CB-r-G-R-H 16.30435 μM, Csubstrate = 2 mM", "result": 0.414, "unit": "min/E"}, {"measurement": "1/Reaction rate", "setting": "CB-r-G-R-H 16.30435 μM, Csubstrate = 4 mM", "result": 0.3865, "unit": "min/E"}, {"measurement": "1/Reaction rate", "setting": "CB-r-G-R-H 26.08696 μM, Csubstrate = 0.5 mM", "result": 0.6903, "unit": "min/E"}, {"measurement": "1/Reaction rate", "setting": "CB-r-G-R-H 26.08696 μM, Csubstrate = 2 mM", "result": 0.4285, "unit": "min/E"}, {"measurement": "1/Reaction rate", "setting": "CB-r-G-R-H 26.08696 μM, Csubstrate = 4 mM", "result": 0.395, "unit": "min/E"}, {"measurement": "Intersect of regression curve 1/reaction rate vs ligand concentration", "setting": "Csubstrate 0.5 mM", "result": 0.5122, "unit": "min/E"}, {"measurement": "Slope of regression curve 1/reaction rate vs ligand concentration", "setting": "Csubstrate 0.5 mM", "result": 0.006964, "unit": "min/E μM"}, {"measurement": "Intersect of regression curve 1/reaction rate vs ligand concentration", "setting": "Csubstrate 2 mM", "result": 0.3880, "unit": "min/E"}, {"measurement": "Slope of regression curve 1/reaction rate vs ligand concentration", "setting": "Csubstrate 2 mM", "result": 0.001572, "unit": "min/E μM"}, {"measurement": "Intersect of regression curve 1/reaction rate vs ligand concentration", "setting": "Csubstrate 4 mM", "result": 0.3746, "unit": "min/E"}, {"measurement": "Slope of regression curve 1/reaction rate vs ligand concentration", "setting": "Csubstrate 4 mM", "result": 0.000805, "unit": "min/E μM"}, {"measurement": "Ki", "setting": "average of three Ki values, read-out: KiM average thrombin binding constant", "result": 20.9, "unit": "µM"}, {"measurement": "Ki", "setting": "intersection of regression curves Csubstrate 2 and 0.5 mM, read-out: Ki2&3 thrombin binding constant", "result": 23, "unit": "µM"}, {"measurement": "Ki", "setting": "intersection of regression curves Csubstrate 4 and 0.5 mM, read-out: Ki1&3 thrombin binding constant", "result": 22.3, "unit": "µM"}, {"measurement": "Ki", "setting": "intersection of regression curves Csubstrate 4 and 2 mM, read-out: Ki1&2 thrombin binding constant", "result": 17.4, "unit": "µM"}, {"measurement": "binding of the peptide aldehyde with thrombin (reversible or irreversible)", "setting": "intersections of regression curves not on the x axis", "result": "reversible"}]}]}
